This note sets out measurements from patent publication US20230414582A1, “METHODS OF TREATING DISEASES AND DISORDERS” (Curis, Inc., priority 2020, published 2023).

“Also recorded” adds a separate entry of the source.

Data set [1] concerns NF-kB p-p50 S337 in TF-1 cells. The data set can be described thus: Western blot of NF-kB p-p50 S337 in TF-1 (AML) cells. The class given is cell-based. The note with it: TF-1 cells (AML cells, FIG. 13B), 3 μM and 10 μM, 48 h, vs DMSO. As to the method:
(§1) At 48 h post-treatment, cell lysates were obtained. Protein sample concentration was quantified and equal amount 20 μg of whole protein extract was loaded in each well of SDS-polyacrylamide gel. Cell extracts were separated by 10% SDS-PAGE, transferred to nitrocellulose membrane, and probed as indicated. The following antibodies were used for immunoblot analysis: NF-kB p-p50 S337 (Santa Cruz Biotechnology) and b-actin (Cell Signaling Technology).

The subject of a further data set is NF-κB p-p50. The data set can be described thus: Immunohistochemistry of NF-κB p-p50 in tumor biopsies of NHL patients treated with Compound 1. The class given is in vivo, human. To be noted: paired biopsies before and after/during treatment with Compound 1 (3 cases). As to the method:
Formalin-fixed, paraffin-embedded sections of human tonsil and lymphoma were used. Tissue sections (5 μm) were deparaffinized, and antigen retrieval was carried out at 90-100° C. in citrate buffer for 10-40 min. The sections were incubated in 1% […] for 10 minutes to quench endogenous tissue peroxidase. Tissue sections were then incubated with primary NF-κB p-p50-specific antibody for 1 hour at room temperature. The primary NF-κB p-p50-specific antibody used NF-κB p-p50 (S337), sc-271908 from Santa Cruz Biotechnology. The slides were stained using a standard EnVision+System-HRP kit (DAKO, Carpinteria, CA) according to the manufacture's protocol. Immunohistochemical reactions were developed with diaminobenzidine as the chromogenic peroxidase substrate, and slides were counterstained with hematoxylin. Negative control samples included replacement of the primary antibody with nonimmune IgG1 (Dako).
Specifically, nuclear and/or cytoplasmic expression of NF-kappaB p-p50 was found in all 6 SD cases treated with 50 mg QD (2 cases, tumor regression), 50 mg BID (1 case), 200 BID (1 case, tumor regression) and 400 BID (2 cases). Expression of NF-kappaB p-p50 was not detected in 7 of 8 cases with PD including patients treated with 50 mg QD (1 case), 100 mg QD (1 case), 100 mg BID (3 cases), 200 mg BID (1 case) and 400 BID (1 case). […]

The next data set deals with AML or high risk MDS. The data set can be described thus: Phase 1 study of Compound 1 in AML or high risk MDS (NCT04278768): marrow response. In kind it is in vivo, human. To be noted: initial patients, 200 or 300 mg BID. As to the method: (§2) This study will be conducted in 2 parts: an initial dose escalation and dose expansion phase. […] Three patients with AML or MDS will be enrolled at the designated dose. If none of the first 3 patients experience a DLT during the first cycle, patients may be enrolled into the next higher dose level of 300 mg bid until a safe and effective RP2D is established.
(§3) This study is expected to enroll approximately 18 patients to establish the initial RP2D.
(§4) The major study inclusion and exclusion criteria are as follows: Relapsed or refractory AML (primary or secondary, including treatment-related) after at least one standard treatment (including chemotherapy, re-induction therapy or stem cell transplantation) based on the assessment of the investigator or high/very high risk relapsed/refractory MDS (IPSS-R criteria), following at least 6 cycles of hypomethylating agents [HMA] or evidence of early progression.

Data set [2] is described as follows: Phase I dose escalation trial of Compound 1 in NHL (NCT03328078): safety and tolerance. In kind it is in vivo, human.
Experimental: (§5) Seven dosing cohorts included 50 and 100 mg QD, and 50, 100, 200, 300, or 400 mg BID of daily continuous oral monotherapy in 21-Day cycles. Objective included safety and tolerance (primary), pk/pd and early efficacy (secondary), and biomarker correlations (exploratory). 31 patients with resistant or refractory, advanced NHL have been enrolled.
The nature of data set [3]: Oral pharmacokinetics of Compound 1 in humans (FIG. 7). In kind it is in vivo, human. From the text:
In summary, the oral pharmacokinetics of Compound 1 are desirable.

For data set [4], the system named is resistant or refractory, advanced NHL. The data set can be described thus: Phase I dose escalation trial of Compound 1 in NHL (NCT03328078): tumor response. In kind it is in vivo, human. The note with it: patient with DLBCL-GCB; initial dose 200 mg bid, final dose 300 mg bid.
Experimental: as §5
Data set [5] relates to NF-kB p-p50 S337 in OCL-LY10 cells. The data set is described as follows: Western blot of NF-kB p-p50 S337 in OCL-LY10 cells. To be noted: 3 μM and 10 μM, 48 h, vs DMSO. In kind it is cell-based. As to the method: as §1
Data set [6] deals with Waldenstrom's macroglobulinemia (WM). The data set can be described thus: WM patient case on Compound 1 with intra-patient dose escalation: IgM, m-protein, response. In kind it is in vivo, human. As to the method:
The patient remained asymptomatic for over 4 years with a slow increase in m-protein and IgM during that time. By mid-2017 they started to experience increased fatigue. […] There was no evidence of CXCR4 genomic alteration. […] Several options were discussed including clinical trials and standard of care Bruton's tyrosine kinase inhibitor (BTKi) therapy.
Baseline testing in December 2018 included a bone marrow biopsy showing 5-10% involvement by WM, m-protein of 1.66 g/dL, IgM 2,801 mg/dL, and a computed tomography scan without pathological lymphadenopathy or hepatosplenomegaly. Quantitative immunoglobulins and serum protein electrophoresis were obtained each cycle to determine response to treatment (FIG. 1).
The patient initiated treatment at the first dose level, 50 mg. […] Using a standard 3+3 design the subsequent dose level, 100 mg po BID, was cleared per protocol. Considering evidence of response without noted toxicity, the patient was a candidate to escalate to 100 mg po BID starting with cycle 7 day 1 in April 2019. […] They reported a significant improvement in their quality of life with resolution of fatigue and returned to a rigorous daily exercise program that they had been unable to perform for the last 2 years due to WM-related symptoms. […]

The nature of data set [7]: Phase 1 study of Compound 1 in AML or high risk MDS (NCT04278768): safety. The class given is in vivo. The note with it: Cohort 1, 200 mg BID. As to the method: as §2, §3, §4
Data set [8] relates to Waldenstrom's macroglobulinemia (WM). The data set is described as follows: Prior therapies of the WM patient (case history). The class given is in vivo, human.

`Cc1cc(-c2nc(C(=O)Nc3cc4oc(N5CCOCC5)nc4nc3N3CC[C@@H](O)C3)co2)ccn1` [Compound 1]: the “expression of NF-kB p-p50 S337 (Western blot)” value in data set [1] is recorded as “downregulated”. Further, in the data set with NF-κB p-p50, the “NF-κB phospho-p50 expression in tumor biopsies” value was “significant downregulation; also recorded: inhibited”. Further, the marrow response entry in the data set with AML or high risk MDS was “several marrow complete responses”. In [2] (200 mg BID, N = 5), the “Anemia, All Grades, [E]” value was “[1]”; the “Neutropenia, All Grades, [E]” value is “[3]”; the “Neutropenia, Grade 3 or Higher, [E]” value is “[2]”. In addition, in data set [2] (300 mg BID, N = 6), the “Anemia, All Grades, [E]” value is “[3]”; the “Neutropenia, All Grades, [E]” value was “[5]”; the “Neutropenia, Grade 3 or Higher, [E]” value is “[1]”. Also, in [2] (400 mg BID, N = 8), the “Anemia, All Grades, [E]” value is “[1]”; the “Anemia, Grade 3 or Higher, [E]” value was “[1]”; the “Neutropenia, All Grades, [E]” value was “[3]”; the “Thrombocytopenia, All Grades, [E]” value was “[2]”. Moreover, in data set [2] (400 mg BID, N = 8), the “Thrombocytopenia, Grade 3 or Higher, [E]” value is “[2]”. Further, the tolerability overall result in data set [2] (31 NHL patients, 50 mg QD to 400 mg BID) is “well tolerated; also recorded: good safety and tolerance”. The “creatine phosphokinase (CPK/CK) elevation” value in data set [2] (WM patient, 200 mg po BID, asymptomatic, resolved with exercise moderation) was “grade 2”. Besides, the tolerability result in data set [2] (WM patient, first dose level, 50 mg) is on record as “tolerated therapy well without adverse events”. In [3] (human, plasma, oral administration), this compound had a half-life of around 6 h. Also, the “accumulation at steady state” value in data set [3] (multiple daily twice dose administration) is reported as “Moderate accumulation”. The “time of maximum plasma concentrations post dose” value in data set [3] (oral administration) fell in the range of 0.5 to 8 h. In addition, the “Tumor Reduction” value in [4] worked out at 35%. In addition, the “expression of NF-kB p-p50 S337 (Western blot)” value in data set [5] is reported as “downregulated”. In addition, the fatigue result in [6] (200 mg po BID, by the summer of 2019) is reported as “completely resolved”. The response entry in data set [6] (cycles 7 and 8, 100 mg po BID) was “stable disease”. Further, in data set [7] (3 patients with hr-MDS), the “DLT 1st cycle” value is “No DLT”. Moreover, the “dose reductions for Gr. 3 dizziness” value in data set [7] (C2) stood at 1.

For the compound rituximab, the response entry in [8] (induction 375 mg/m^2 IV weekly for 8 weeks then maintenance, 2005-2007) was “very good partial remission”; in data set [8] (retreatment June-September 2011), “stable disease”. The IgM in data set [8] (retreatment 2011, numeric increase from 1476) was 2042 mg/dL.
